These results are taken from patent publication US20100040666A1, “Method for Control of Drug Elution Rate and Composition for Coating of Drug-Eluting Stent” (priority 2005, published 2010).

This data set in a line: Elution test of compound represented by structural formula (2) from poly (MPC-co-BMA). The data set is classed as physicochemical. Conditions: thin plate of stainless steel coated sequentially with compositions of Examples 1 to 3, immersed in distilled water. The method, then: Test 2: Elution Test of Compound Represented by Structural Formula (2)
The elution test of the compound represented by the structural formula (2) from poly (MPC-co-BMA) was conducted. The test sample was prepared by coating sequentially the compositions from Examples 1 to 3 to a thin plate of stainless steel. The prepared sample was immersed in distilled water, and then the amount of the eluted compound represented by the structural formula (2) was measured with time.
It can be verified that the compound represented by the structural formula (2) is eluted for about 100 hours. In addition, even after 100 hours, the compound represented by the structural formula (2) is eluted gradually for 400 hours, and thus it can be verified that controlled release is intended.

`CCOc1cccc(C(CC)n2nc(C(=O)O)c3c2-c2ccc(OCc4cncnc4)cc2CC3)c1` (centres unmarked) [structural formula (2)]: the “time for which the compound is eluted (cumulative eluted amount, FIG. 3)” value is given as “about 100 hours” and the “time for which the compound is eluted gradually, even after 100 hours (controlled release)” value was 400 h.
